Test results reported in ChEMBL document CHEMBL3879904, “Selective sphingosine 1 phosphate receptor modulators and methods of chiral synthesis” (2013).

Assays:
[1] = Toxicity in Sprague-Dawley rat assessed as dose required to produce 10% increase in lung to terminal body weight ratio administered orally via gavage for 5 to 14 days measured 24 hrs post last dose; conditions: in vivo, po
[2] = system: Rattus norvegicus; assay: Antiinflammatory activity in Sprague-Dawley rat assessed as dose required to produce 50% lymphopenia administered orally via gavage for 3 to 5 days measured 24 hrs post last dose; assay type: functional
[3] = Therapeutic index, ratio of dose required to produce 10% increase in lung to terminal body weight ratio administered for 14 days to dose required to produce 50% lymphopenia in Sprague-Dawley rat; conditions: in vivo, read-out: TI
[4] = molecular target: Sphingosine 1-phosphate receptor 1 (Homo sapiens, UniProt P21453); assay: Agonist activity at human S1P1 expressed in CRE-bla CHOK1 cells assessed as inhibition of forskolin-induced cAMP formation preincubated for 4 hrs followed by FRET-based beta-lactamase fluorescent substrate addition measured after 2 hrs; assay type: functional, cell-based, CHO-K1
[5] = Oral bioavailability in Sprague-Dawley rat at 2 mg/kg administered via gavage by HPLC-LC/MS/MS method; assay type: ADME, organism-based; conditions: in vivo
[6] = system: Mus musculus; assay: Antiinflammatory activity in C57BL6 mouse assessed as induction of lymphopenia by measuring CD4 or CD8-positive T cell levels at 1 mg/kg, po administered via gavage measured over 24 hrs by FACS analysis relative to control; assay type: functional
[7] = system: Mus musculus; assay: Antiinflammatory activity in Influenza A virus (A/WSN/33) infected C57Bl/6 mouse model assessed as suppression of inflammatory cell infiltration into lungs at 0.5 mg/kg administered intratracheally 1 hr post viral infection measured after 48 hrs relative to control; assay type: functional; conditions: C57Bl/6, inhaled or nasal

Sequence of Sphingosine 1-phosphate receptor 1 (P21453 whole entry): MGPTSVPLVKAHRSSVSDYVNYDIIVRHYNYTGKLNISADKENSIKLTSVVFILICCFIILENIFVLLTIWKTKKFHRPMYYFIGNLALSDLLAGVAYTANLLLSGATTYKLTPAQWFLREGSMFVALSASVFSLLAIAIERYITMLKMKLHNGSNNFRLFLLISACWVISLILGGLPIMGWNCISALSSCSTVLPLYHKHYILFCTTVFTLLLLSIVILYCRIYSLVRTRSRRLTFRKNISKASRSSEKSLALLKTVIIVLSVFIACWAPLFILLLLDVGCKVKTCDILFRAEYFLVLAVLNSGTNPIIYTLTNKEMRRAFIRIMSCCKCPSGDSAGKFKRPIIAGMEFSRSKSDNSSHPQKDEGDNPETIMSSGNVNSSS

Compound | Activity [1] | Activity [2] | further results
CC(C)Oc1ccc(-c2nc(-c3cccc4c3CC[C@@H]4NCCO)no2)cc1C#N [OZANIMOD] | 2.7 mg/kg | 0.15 mg/kg | 
CC(C)Oc1ccc(-c2nc(-c3cccc4c3CC[C@H]4N)no2)cc1C#N.Cl | 0.2 mg/kg | 0.1 mg/kg | selectivity ratio at 336 h [3]: 2
CC(C)Oc1ccc(-c2nc(-c3cccc4c3CC[C@@H]4NS(=O)(=O)CCO)no2)cc1C#N | 5 mg/kg | 0.5 mg/kg | 
CC(C)Oc1ccc(-c2nc(-c3cccc4c3CC[C@@H]4N)no2)cc1C#N | 2 mg/kg | 0.1 mg/kg | 
CC(C)Oc1ccc(-c2nc(-c3cccc4c3CC[C@H]4NCC(=O)N(C)C)no2)cc1C#N.Cl | 5.5 mg/kg | 0.4 mg/kg | 
COCCS(=O)(=O)N[C@@H]1CCc2c(-c3noc(-c4ccc(OC(C)C)c(C#N)c4)n3)cccc21 | 2.1 mg/kg | 0.07 mg/kg | 
CC(C)Oc1ccc(-c2nc(-c3cccc4c3CC[C@H]4NCC(=O)N3CCOCC3)no2)cc1C#N |  |  | EC50 [4]: 0.05 to 0.5 nM
CC(C)Oc1ccc(-c2nc(-c3cccc4c3CC[C@@H]4NC(=O)N(C)C)no2)cc1C#N |  |  | EC50 [4]: 0.05 to 0.5 nM
CCOc1ccc(-c2nc(-c3cccc4c3CCC4NCCO)no2)cc1OCC (racemic) |  |  | bioavailability [5]: 21%; AUEC [6]: 116%
CC(C)Oc1ccc(-c2nc(-c3cccc4c3CC[C@H]4NS(=O)(=O)CCO)no2)cc1C#N | 1.1 mg/kg | 0.07 mg/kg | 
CC(C)Oc1ccc(-c2nc(-c3cccc4c3CC[C@H]4NC(=O)N3CC(O)C3)no2)cc1C#N | 21.3 mg/kg | 0.9 mg/kg | 
CC(C)Oc1ccc(-c2nc(-c3cccc4c3CC[C@@H]4NC(=O)N3CC(O)C3)no2)cc1C#N | 11.3 mg/kg | 2 mg/kg | 
COCCS(=O)(=O)N[C@H]1CCc2c(-c3noc(-c4ccc(OC(C)C)c(C#N)c4)n3)cccc21 | 5 mg/kg | 0.25 mg/kg | 
CC(C)Oc1ccc(-c2nc(-c3cccc4c3CC[C@H]4NC(=O)c3ccc(Br)cc3)no2)cc1C#N |  |  | EC50 [4]: > 5 nM
CC(C)Oc1ccc(-c2nc(-c3cccc4c3CC[C@@H]4NCC(=O)N(C)C)no2)cc1C#N | 0.3 mg/kg | 0.3 mg/kg | 
CC(C)Oc1ccc(-c2nc(-c3cccc4c3CC[C@H]4NCCO)no2)cc1C#N | 2.8 mg/kg | 0.15 mg/kg | inhibition in vivo at 0.5 mg/kg [7]: 40%
